# Reference: patent US20250276962A1, “CONTRACEPTIVE COMPOUNDS AND METHODS” (Regents of the University of Minnesota, priority 2021, published 2025)
# Columns and labels:
# RARγ = molecular target: T1, RARγ (Homo sapiens, UniProt P13631); test: Transactivation (luciferase) antagonist assay, RARγ; assay type: cell-based; details: vs EC80 (8 nM) ATRA, luciferase readout; read-out: RARγ Antagonism IC50
# T1 construct: host or cells: unnamed reporter cells
# T1 sequence (P13631 1-454): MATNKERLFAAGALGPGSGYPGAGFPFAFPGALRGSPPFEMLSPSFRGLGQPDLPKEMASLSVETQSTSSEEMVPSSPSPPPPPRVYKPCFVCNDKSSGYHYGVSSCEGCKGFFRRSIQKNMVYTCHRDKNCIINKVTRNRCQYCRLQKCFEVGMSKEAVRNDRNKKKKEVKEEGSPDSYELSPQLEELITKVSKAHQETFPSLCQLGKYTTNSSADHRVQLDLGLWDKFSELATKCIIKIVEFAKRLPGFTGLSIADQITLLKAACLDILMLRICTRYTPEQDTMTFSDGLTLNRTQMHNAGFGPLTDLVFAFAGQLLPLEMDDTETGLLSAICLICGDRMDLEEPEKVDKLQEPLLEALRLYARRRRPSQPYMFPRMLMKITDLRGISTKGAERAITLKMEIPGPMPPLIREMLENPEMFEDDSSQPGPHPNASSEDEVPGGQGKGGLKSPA
# Description: (§1) Control wells containing cells without added agonist defined the background signal values. […] Cell suspension (30 μL) was added to each well and the assay plate was incubated overnight in a 5% CO2 incubator at 37° C. Luciferase detection reagent (15 μL) was then added and the plate was incubated at RT for 30 minutes. Luminescence was quantified using an EnSpire plate reader (PerkinElmer, Waltham, MA). IC50 values were determined by fitting dose response data using the four-parameter logistic equation in GraphPad Prism 7.0.
# RARβ = molecular target: T2, RARβ (Homo sapiens, UniProt P10826); test: Transactivation (luciferase) antagonist assay, RARβ; assay type: cell-based; details: vs EC80 (8 nM) ATRA, luciferase readout; read-out: RARβ Antagonism IC50
# T2 construct: host or cells: unnamed reporter cells
# T2 sequence (P10826 1-455): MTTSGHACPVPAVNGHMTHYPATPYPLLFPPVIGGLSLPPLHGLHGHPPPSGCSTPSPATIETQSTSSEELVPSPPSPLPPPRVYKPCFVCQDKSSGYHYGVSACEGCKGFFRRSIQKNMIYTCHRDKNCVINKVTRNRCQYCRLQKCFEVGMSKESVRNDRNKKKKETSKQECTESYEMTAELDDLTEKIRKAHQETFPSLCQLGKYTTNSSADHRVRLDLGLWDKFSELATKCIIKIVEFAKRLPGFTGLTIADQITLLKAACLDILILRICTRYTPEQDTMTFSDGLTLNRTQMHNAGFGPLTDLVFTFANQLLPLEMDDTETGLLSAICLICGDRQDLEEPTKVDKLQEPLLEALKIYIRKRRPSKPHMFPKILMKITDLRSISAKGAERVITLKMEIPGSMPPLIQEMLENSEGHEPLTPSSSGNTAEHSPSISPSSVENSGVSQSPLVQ
# Description: as §1
# RARα = molecular target: T3, RARα (Homo sapiens, UniProt P10276); test: Transactivation (luciferase) antagonist assay, RARα; assay type: cell-based; details: vs EC80 (180 nM) 9-cis-RA, luciferase readout; read-out: RARα Antagonism IC50
# T3 construct: host or cells: unnamed reporter cells
# T3 sequence (P10276 1-462): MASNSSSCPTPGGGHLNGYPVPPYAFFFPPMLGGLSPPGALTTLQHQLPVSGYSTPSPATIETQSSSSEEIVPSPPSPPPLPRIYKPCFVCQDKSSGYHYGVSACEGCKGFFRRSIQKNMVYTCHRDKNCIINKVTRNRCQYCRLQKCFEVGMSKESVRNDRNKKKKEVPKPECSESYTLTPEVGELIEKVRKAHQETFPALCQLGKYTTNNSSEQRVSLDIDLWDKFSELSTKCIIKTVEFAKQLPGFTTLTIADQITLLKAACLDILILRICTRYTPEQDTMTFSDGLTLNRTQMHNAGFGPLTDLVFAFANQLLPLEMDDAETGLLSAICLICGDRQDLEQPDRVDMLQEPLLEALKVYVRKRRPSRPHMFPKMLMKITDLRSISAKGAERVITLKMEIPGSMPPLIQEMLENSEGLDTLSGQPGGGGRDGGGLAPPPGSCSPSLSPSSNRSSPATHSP
# Description: as §1
# [1] = Solubility in PBS at pH 7.4; assay type: physicochemical
Structure (SMILES),IC50 (RARγ),IC50 (RARβ),IC50 (RARα),solubility [1]
CC1(C)C=C(c2ccccc2)c2cc(-c3ccc(-c4ccc(C(=O)O)cc4)[nH]3)ccc2O1,> 3300 nM,> 3300 nM,15 nM,–
Cc1ccc(C2=CC(C)(C)Oc3ccc(-c4ccc(-c5ccc(C(=O)O)c(O)c5)[nH]4)cc32)cc1,> 3000 nM,> 3000 nM,94 nM,–
"CC(=O)[C@H]1CC[C@H]2[C@@H]3CCC4=CC(=O)CC[C@]4(C)[C@H]3CC[C@]12C [Progesterone, reference compound]",–,–,–,14.02 µM
Cc1ccc(C2=CC(C)(C)Oc3ccc(-c4ccc(-c5ccc(C(=O)O)c(C)c5)[nH]4)cc32)cc1,> 3000 nM,> 3000 nM,87 nM,–
Cc1ccc(C2=CC(C)(C)Oc3ccc(-c4ccc(-c5ccc(C(=O)O)c(F)c5)[nH]4)cc32)cc1,–,–,100 nM,–
COc1cc2c(cc1-c1ccc(-c3ccc(C(=O)O)cc3)[nH]1)C(c1ccc(C)cc1)=CC(C)(C)O2,–,–,2000 nM,–
Cc1ccc(C2=CC(C)(C)Oc3ccc(-c4ccc(-c5cc(F)c(C(=O)O)c(F)c5)[nH]4)cc32)cc1,–,–,470 nM,–
